The record followed here is patent US20250049799A1, “Targeted Therapy of Pyrrolo[2,3-D]Pyrimidine Antifolates in a Syngeneic Mouse Model of High Grade Serous Ovarian Cancer” (Duquesne University of The Holy Spirit, priority 2021, published 2025).

Like-named read-outs stand apart in the source and are kept apart here.

The test system of assay [1] is BR-5 mouse HGSOC tumor cells. The assay is described as follows: Cell proliferation assay (CellTiter-blue, 96 h), BR-5 cells. Format: cell-based. As for the experimental part: (§1) Results with BR-5 and BR-Luc cells were compared to those for IGROV1 human EOC cells (Table 1) in the absence and presence of excess folic acid (200 nM), which selectively blocks FR-mediated drug uptake without effects on RFC or PCFT^6. […] Further, inhibitions of the murine EOCs by all compounds approximated those for IGROV1 human EOC cells.
(§2) Cell proliferation assays were performed as described^6, 21. Cells were plated in 96-well dishes at densities ranging from 2500-5000 cells/well in 200 μL media and treated with a range of inhibitors spanning 0-1000 nM. Experiments used BR-5 and BR-Luc cells and folate-free RPMI 1640 media with 10% dialyzed FBS and 100 units/mL penicillin/100 μg/mL streptomycin, supplemented with 25 nM leucovorin and 2 mM L-glutamine. FR-mediated drug uptake was assessed in parallel incubations including 200 nM folic acid. Cells were treated over a 96 h period at 37° C. with 5% CO2 and relative cell numbers were quantified using the CellTiter-blue cell viability assay (Promega, Madison, WI) and a fluorescence plate reader^21. Raw data were exported to Excel for analysis and the results plotted using Graphpad Prism 6.0.

Assay [2] concerns BR-Luc mouse HGSOC tumor cells. The assay is described as follows: Cell proliferation assay (CellTiter-blue, 96 h), BR-Luc cells. The assay is classed as cell-based. On the procedure: as §1, §2
(In general: The colour change of resazurin is a common sign of viable cells or microbes.)

Assay [3] deals with FRβ (Homo sapiens, UniProt P14207). The note with it: comparison of Table 3 values with PMX.
Sequence of FRβ (P14207 17-230): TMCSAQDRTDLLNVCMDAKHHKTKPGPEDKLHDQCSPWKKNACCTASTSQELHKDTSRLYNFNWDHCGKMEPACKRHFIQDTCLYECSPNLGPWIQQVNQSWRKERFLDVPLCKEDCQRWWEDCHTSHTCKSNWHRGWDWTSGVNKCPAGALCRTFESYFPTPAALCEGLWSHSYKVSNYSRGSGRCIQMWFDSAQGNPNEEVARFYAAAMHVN
The test system of assay [4] is IGROV1 human EOC cells. The assay is described as follows: Cell proliferation assay, IGROV1 cells. Format: cell-based. On the procedure: as §1, §2

In the case of `Nc1nc2[nH]c(CCCCc3csc(C(=O)N[C@@H](CCC(=O)O)C(=O)O)c3F)cc2c(=O)[nH]1` [AGF278], the IC50 turned out to be 6.55 ± 3.24 nM in assay [1] (Mus musculus, no folic acid, mean ± SE, read-out: IC50 anti-proliferative activity BR-5, No addition); 547 ± 188 nM in assay [1] (Mus musculus, read-out: IC50 anti-proliferative activity BR-5, Folic Acid (200 nM), with 200 nM folic acid, mean ± SE); 6.06 ± 3.12 nM in assay [2] (Mus musculus, no folic acid, folate-free RPMI1640, 25 nM leucovorin, mean ± SE, read-out: IC50 anti-proliferative activity BR-Luc, No addition); 588 ± 162 nM in assay [2] (Mus musculus, read-out: IC50 anti-proliferative activity BR-Luc, Folic Acid (200 nM), with 200 nM folic acid, mean ± SE); 1.9 ± 0.15 nM in assay [4] (Homo sapiens, IGROV-1, no folic acid, mean ± SE, read-out: IC50 anti-proliferative activity IGROV1, No addition); 426 ± 152 nM in assay [4] (Homo sapiens, IGROV-1, read-out: IC50 anti-proliferative activity IGROV1, Folic Acid (200 nM), with 200 nM folic acid, mean ± SE). The “Transport by folate receptor beta compared with pemetrexed (PMX)” value (from here on “Transport … compared with pemetrexed (PMX)”) in assay [3] is “at least ten times better transported”.

On to `N.N.[Cl][Pt][Cl]` [Cisplatin, reference compound], for which the IC50 worked out at 160 ± 110 nM in assay [1] (no folic acid, mean ± SE, read-out: IC50 anti-proliferative activity BR-5, No addition); 290 ± 170 nM in assay [2] (no folic acid, folate-free RPMI1640, 25 nM leucovorin, mean ± SE, read-out: IC50 anti-proliferative activity BR-Luc, No addition); 857 ± 62.3 nM in assay [4] (no folic acid, mean ± SE, read-out: IC50 anti-proliferative activity IGROV1, No addition).

Regarding `Nc1nc2[nH]c(CCCc3ccc(C(=O)N[C@@H](CCC(=O)O)C(=O)O)s3)cc2c(=O)[nH]1` [Compound 1], the “Transport … compared with pemetrexed (PMX)” value in assay [3] is recorded as “at least ten times better transported”.

`Nc1nc2[nH]c(CCCCc3ccc(C(=O)N[C@@H](CCC(=O)O)C(=O)O)cc3)cc2c(=O)[nH]1` [Compound 2]: the “Transport … compared with pemetrexed (PMX)” value in assay [3] is recorded as “at least ten times better transported”.

Take `Nc1nc2[nH]c(CCCCc3ccc(C(=O)N[C@@H](CCC(=O)O)C(=O)O)nc3)cc2c(=O)[nH]1` [Compound 4]: the “Transport … compared with pemetrexed (PMX)” value in assay [3] is on record as “at least ten times better transported”.

Consider `Nc1nc2[nH]c(CCCCc3csc(C(=O)N[C@@H](CCC(=O)O)C(=O)O)c3)cc2c(=O)[nH]1` [Compound 5], for which, in assay [3], the “Transport … compared with pemetrexed (PMX)” value is on record as “at least ten times better transported”.

In the case of `Nc1nc2[nH]c(CCCCc3ccc(C(=O)N[C@@H](CCC(=O)O)C(=O)O)c(F)c3)cc2c(=O)[nH]1` [Compound 8], the “Transport … compared with pemetrexed (PMX)” value in assay [3] is listed as “at least ten times better transported”.

`Nc1nc2[nH]c(CCCCc3cnc(C(=O)N[C@@H](CCC(=O)O)C(=O)O)c(F)c3)cc2c(=O)[nH]1` [Compound 10]: in assay [3], the “Transport … compared with pemetrexed (PMX)” value is “at least ten times better transported”.

As a reminder, the IC50 is the concentration at which inhibition is half-maximal.
